Results on one compound are retold here after patent US8518953B2, “Aminopyrimidines useful as inhibitors of protein kinases” (Vertex Pharmaceuticals Incorporated, priority 2007, dated 2013).

A word on the IC50: it is the midpoint of a concentration-inhibition curve.

One test has as its target T1, GSK3β TYR 216 (Homo sapiens, UniProt P49841).
T1 construct: western blotting of Jurkat cells dosed with the compounds; endogenous in cells; host or cells: Jurkat cells
As to the kind of experiment: GSK3β p-TYR Inhibition Assay (western blotting of Jurkat cells). In kind it is cell-based. The settings on record: western blot, read-out: GSK3b pTYR 216: IC50. The method, then:
Compounds are screened for their ability to inhibit the phosphorylation of tyrosine (TYR) residues through the use of western blotting of Jurkat cells dosed with the compounds. The phosphorylation of the specific TYR residues tested are GSK3α TYR 279 and GSK3β TYR 216.
Jurkat cells are seeded at a density of 2×10^5 cells/well in a 12 well dish in starvation media (RPMI+1% FBS+P/S). Following starvation for 16 hours, the compound is dosed into each well at a final DMSO concentration of 0.3% and cells are incubated o/n at 37° C. 5% CO2. The next day, cells are spun down at 1500 rpm, washed with PBS, and lysed in 100 uL Laemli sample buffer with β-mercaptoethanol.
15 microliters (uL) of cell lysates are loaded onto a 10% tris-glycine gel and run at 120 v for 2 hours or until dye front runs off of the gel. The protein is then transferred onto a PVDF membrane at 100 v for 60 min. PBST (PBS containing 0.1% Tween 20, such as 1 ml Tween per 1 L of PBS) is then made up and used for all washes and antibody incubations. The blot is blocked in 5% nonfat milk PBST for one hour.
The primary antibody (GSK-3α/β pTYR 279/216 at 1:1000 dilution Upstate cat#05-413) is then added in […] PBST overnight at 4° C. with gentle rocking. The blot is then washed in PBST for 5 min. This is then repeated 4 times. […]
Background: In western blotting, separated proteins are transferred to a membrane and probed.

The next test deals with rats subjected to MCAO. As to the kind of experiment: Post Stroke Recovery MCAO Model: Gridwalk. In kind it is in vivo, rat. The settings on record: 7 and 14 days after stroke. From the text:
Adult male Wistar rats are pre-trained on a battery of behavioral tests including: tray reach, […], forelimb asymmetry (cylinder bracing), forelimb inhibition (swim test) (see below for detailed description of tests). Following pre-stroke behavioral assessment the rats receive surgery during which a stroke is induced. The rats are pseudo-randomly divided into 5 equal groups (n=12) ensuring an equal number of right and left strokes within each treatment group. The first group receives sham surgery with vehicle as treatment. Administration of the test compound and vehicle (dose, route, timing) is determined by the sponsor. The core body temperature is maintained at 37° C. (+/-1°). Following surgery all animals are behaviorally assessed 1, 7, and 14 d post-stroke. At the conclusion of behavioral assessment all rats undergo an MRI to determine infarct volume. […] Rectal temperature is monitored and maintained at 37 C+/-1° C. for the duration of the surgery and until the rat is awake and mobile (approximately 3 hr). […] Forelimb and hindlimb coordination are measured using an apparatus that consists of two Plexiglas panels 1 m long and 25 cm wide (5 mm thick) with holes drilled 1 cm apart along one long edge. […]

T1 sequence (P49841 whole entry): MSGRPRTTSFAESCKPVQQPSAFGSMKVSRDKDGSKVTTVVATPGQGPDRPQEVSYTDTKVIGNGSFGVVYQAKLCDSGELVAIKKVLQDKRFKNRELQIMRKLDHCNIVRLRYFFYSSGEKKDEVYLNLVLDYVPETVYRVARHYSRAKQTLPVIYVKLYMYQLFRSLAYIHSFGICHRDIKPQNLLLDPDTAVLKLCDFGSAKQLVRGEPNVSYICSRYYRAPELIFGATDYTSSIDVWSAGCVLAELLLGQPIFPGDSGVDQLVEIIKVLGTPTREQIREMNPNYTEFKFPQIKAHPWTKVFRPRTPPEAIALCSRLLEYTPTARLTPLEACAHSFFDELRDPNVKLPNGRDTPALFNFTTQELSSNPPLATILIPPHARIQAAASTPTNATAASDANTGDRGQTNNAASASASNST

In the case of `Cc1nc(-c2ccccc2Cl)nc(Nc2n[nH]c3ncc(F)cc23)c1C` [Compound I-1, N-(2-(2-chlorophenyl)-5,6-dimethylpyrimidin-4-yl)-5-fluoro-1H-pyrazolo[3,4-b]pyridin-3-amine], the IC50 on GSK3β TYR 216 amounted to 3 nM. Besides, the deficit in gridwalk entry with rats subjected to MCAO is on record as “significantly ameliorated this deficit”.
